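Compound exposure: 48 hours, 5 concentrations, 96-well plates. GI50 marks 50% less growth.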 Active and inactive are the calls of the source. No stated cut-off is given here; in the data, active = GI50 up to about 1.1 µM and inactive = higher.
Tests used:
Assay in all cases: DTP human tumour cell line panel, 48 h
NCI-H522 = tested on: NCI-H522
RPMI-8226 = tested on: RPMI-8226
UO-31 = tested on: UO-31
NCI-H226 = tested on: NCI-H226
BT-549 = tested on: BT-549
SF-295 = tested on: SF-295
Malme-3M = tested on: Malme-3M
SR = tested on: SR
MDA-MB-435 = tested on: MDA-MB-435
SK-MEL-28 = tested on: SK-MEL-28
MDA-N = tested on: MDA-N
MCF7 = tested on: MCF7
PC-3 = tested on: PC-3
OVCAR-3 = tested on: OVCAR-3
KM12 = tested on: KM12
COLO 205 = tested on: COLO 205
SK-MEL-2 = tested on: SK-MEL-2
RXF 393 = tested on: RXF 393
UACC-257 = tested on: UACC-257
MOLT-4 = tested on: MOLT-4
SNB-75 = tested on: SNB-75
EKVX = tested on: EKVX
SNB-19 = tested on: SNB-19
SK-MEL-5 = tested on: SK-MEL-5
CAKI-1 = tested on: CAKI-1
MDA-MB-231 = tested on: MDA-MB-231
T47D = tested on: T47D
K562 = tested on: K562
CCRF-CEM = tested on: CCRF-CEM
OVCAR-8 = tested on: OVCAR-8
HOP-62 = tested on: HOP-62
NCI-H23 = tested on: NCI-H23
HOP-92 = tested on: HOP-92
UACC-62 = tested on: UACC-62
HL-60 = tested on: HL-60
A549 = tested on: A549
HCC 2998 = tested on: HCC 2998
Hs-578T = tested on: Hs-578T
DU-145 = tested on: DU-145
ACHN = tested on: ACHN
M14 = tested on: M14
OVCAR-5 = tested on: OVCAR-5
SW-620 = tested on: SW-620
SF-268 = tested on: SF-268
NCI/ADR-RES = tested on: NCI/ADR-RES
SN12C = tested on: SN12C
HCT-15 = tested on: HCT-15
HCT-116 = tested on: HCT-116
HT-29 = tested on: HT-29
SF-539 = tested on: SF-539
786-0 = tested on: 786-0
NCI-H460 = tested on: NCI-H460
LOX IMVI = tested on: LOX IMVI
SK-OV-3 = tested on: SK-OV-3
U-251 = tested on: U-251
A498 = tested on: A498
TK-10 = tested on: TK-10
IGROV-1 = tested on: IGROV-1

Question: What does the source list for `CC(=O)OCC(OC(C)=O)C(OC(C)=O)C(OC(C)=O)C(/C=N\Nc1nc2ccccc2c(=O)[nH]1)=N/Nc1nc2ccccc2c(=O)[nH]1` (stereo not drawn)?
Answer: GI50 (NCI-H522): > 100 µM (inactive); GI50 (RPMI-8226): > 100 µM (inactive); GI50 (UO-31): > 100 µM (inactive); GI50 (NCI-H226): > 100 µM (inactive); GI50 (BT-549): > 100 µM (inactive); GI50 (SF-295): > 100 µM (inactive); GI50 (Malme-3M): > 100 µM (inactive); GI50 (SR): > 100 µM (inactive); GI50 (MDA-MB-435): > 100 µM (inactive); GI50 (SK-MEL-28): > 100 µM (inactive); GI50 (MDA-N): > 100 µM (inactive); GI50 (MCF7): > 100 µM (inactive); GI50 (PC-3): > 100 µM (inactive); GI50 (OVCAR-3): > 100 µM (inactive); GI50 (KM12): 97.7 µM (inactive); GI50 (COLO 205): > 100 µM (inactive); GI50 (SK-MEL-2): > 100 µM (inactive); GI50 (RXF 393): > 100 µM (inactive); GI50 (UACC-257): > 100 µM (inactive); GI50 (MOLT-4): > 100 µM (inactive); GI50 (SNB-75): > 100 µM (inactive); GI50 (EKVX): > 100 µM (inactive); GI50 (SNB-19): > 100 µM (inactive); GI50 (SK-MEL-5): > 100 µM (inactive); GI50 (CAKI-1): > 100 µM (inactive); GI50 (MDA-MB-231): > 100 µM (inactive); GI50 (T47D): > 100 µM (inactive); GI50 (K562): > 100 µM (inactive); GI50 (CCRF-CEM): > 100 µM (inactive); GI50 (OVCAR-8): > 100 µM (inactive); GI50 (HOP-62): > 100 µM (inactive); GI50 (NCI-H23): > 100 µM (inactive); GI50 (HOP-92): > 100 µM (inactive); GI50 (UACC-62): > 100 µM (inactive); GI50 (HL-60): > 100 µM (inactive); GI50 (A549): > 100 µM (inactive); GI50 (HCC 2998): 85.5 µM (inactive); GI50 (Hs-578T): > 100 µM (inactive); GI50 (DU-145): > 100 µM (inactive); GI50 (ACHN): > 100 µM (inactive); GI50 (M14): > 100 µM (inactive); GI50 (OVCAR-5): > 100 µM (inactive); GI50 (SW-620): > 100 µM (inactive); GI50 (SF-268): > 100 µM (inactive); GI50 (NCI/ADR-RES): > 100 µM (inactive); GI50 (SN12C): > 100 µM (inactive); GI50 (HCT-15): > 100 µM; GI50 (HCT-116): > 100 µM (inactive); GI50 (HT-29): > 100 µM (inactive); GI50 (SF-539): 18.2 µM (inactive); GI50 (786-0): > 100 µM (inactive); GI50 (NCI-H460): > 100 µM (inactive); GI50 (LOX IMVI): > 100 µM (inactive); GI50 (SK-OV-3): > 100 µM (inactive); GI50 (U-251): > 100 µM (inactive)

Question: Which results are given for `CCCCCC/C=C\CCCCCCCCC(=O)c1cccc(OC)c1OC`?
Answer: GI50 (NCI-H522): 44.6 µM (inactive); GI50 (RPMI-8226): 34 µM (inactive); GI50 (UO-31): > 100 µM (inactive); GI50 (NCI-H226): > 100 µM (inactive); GI50 (A498): 26 µM (inactive); GI50 (BT-549): > 100 µM (inactive); GI50 (SF-295): 45.7 µM (inactive); GI50 (Malme-3M): > 100 µM (inactive); GI50 (SR): 64.9 µM (inactive); GI50 (MDA-MB-435): 84.7 µM (inactive); GI50 (SK-MEL-28): > 100 µM (inactive); GI50 (MDA-N): 91.8 µM (inactive); GI50 (MCF7): > 10 µM (inactive); GI50 (PC-3): 71 µM (inactive); GI50 (KM12): 84.7 µM (inactive); GI50 (COLO 205): 87.3 µM (inactive); GI50 (SK-MEL-2): > 100 µM (inactive); GI50 (RXF 393): 21 µM (inactive); GI50 (UACC-257): 34.4 µM (inactive); GI50 (MOLT-4): 25.7 µM (inactive); GI50 (SNB-75): > 100 µM (inactive); GI50 (EKVX): > 100 µM (inactive); GI50 (SNB-19): > 100 µM (inactive); GI50 (SK-MEL-5): 15.2 µM (inactive); GI50 (CAKI-1): > 100 µM (inactive); GI50 (MDA-MB-231): > 100 µM (inactive); GI50 (T47D): 29.2 µM (inactive); GI50 (TK-10): > 100 µM (inactive); GI50 (K562): 27.5 µM (inactive); GI50 (CCRF-CEM): 35.6 µM (inactive); GI50 (OVCAR-8): > 100 µM (inactive); GI50 (HOP-62): > 100 µM (inactive); GI50 (NCI-H23): 40.2 µM (inactive); GI50 (UACC-62): > 100 µM (inactive); GI50 (HL-60): 14.8 µM (inactive); GI50 (A549): > 100 µM (inactive); GI50 (HCC 2998): > 100 µM (inactive); GI50 (Hs-578T): 65.2 µM (inactive); GI50 (DU-145): > 100 µM (inactive); GI50 (ACHN): > 100 µM (inactive); GI50 (M14): > 100 µM (inactive); GI50 (OVCAR-5): > 100 µM (inactive); GI50 (IGROV-1): 35.4 µM (inactive); GI50 (SW-620): > 100 µM (inactive); GI50 (SF-268): > 100 µM (inactive); GI50 (NCI/ADR-RES): 60.8 µM (inactive); GI50 (SN12C): > 100 µM (inactive); GI50 (HCT-15): > 100 µM; GI50 (HCT-116): 41.7 µM (inactive); GI50 (HT-29): 41.9 µM (inactive); GI50 (SF-539): > 100 µM (inactive); GI50 (786-0): > 100 µM (inactive); GI50 (LOX IMVI): 16.8 µM (inactive); GI50 (SK-OV-3): > 100 µM (inactive); GI50 (U-251): > 100 µM (inactive)

Question: Which results are given for `CC(=O)OC(C(=O)NNC(=O)OC(C)(C)C)c1ccccc1` (stereo not drawn)?
Answer: GI50 (NCI-H522): > 100 µM (inactive); GI50 (RPMI-8226): > 100 µM (inactive); GI50 (UO-31): > 100 µM (inactive); GI50 (NCI-H226): > 100 µM (inactive); GI50 (BT-549): > 100 µM (inactive); GI50 (SF-295): > 100 µM (inactive); GI50 (Malme-3M): > 100 µM (inactive); GI50 (SR): > 100 µM (inactive); GI50 (MDA-MB-435): > 100 µM (inactive); GI50 (SK-MEL-28): > 100 µM (inactive); GI50 (MDA-N): > 100 µM (inactive); GI50 (MCF7): > 100 µM (inactive); GI50 (PC-3): > 100 µM (inactive); GI50 (OVCAR-3): > 100 µM (inactive); GI50 (KM12): > 100 µM (inactive); GI50 (COLO 205): > 100 µM (inactive); GI50 (SK-MEL-2): > 100 µM (inactive); GI50 (RXF 393): > 100 µM (inactive); GI50 (UACC-257): > 10 µM (inactive); GI50 (MOLT-4): > 100 µM (inactive); GI50 (SNB-75): > 100 µM (inactive); GI50 (EKVX): > 100 µM (inactive); GI50 (SNB-19): > 100 µM (inactive); GI50 (SK-MEL-5): > 100 µM (inactive); GI50 (CAKI-1): > 100 µM (inactive); GI50 (MDA-MB-231): > 100 µM (inactive); GI50 (T47D): > 100 µM (inactive); GI50 (TK-10): > 100 µM (inactive); GI50 (K562): > 100 µM (inactive); GI50 (OVCAR-8): > 100 µM (inactive); GI50 (HOP-62): > 100 µM (inactive); GI50 (NCI-H23): > 100 µM (inactive); GI50 (HOP-92): > 100 µM (inactive); GI50 (UACC-62): > 100 µM (inactive); GI50 (A549): > 100 µM (inactive); GI50 (HCC 2998): > 100 µM (inactive); GI50 (Hs-578T): > 100 µM (inactive); GI50 (DU-145): > 100 µM (inactive); GI50 (ACHN): > 100 µM (inactive); GI50 (M14): > 100 µM (inactive); GI50 (OVCAR-5): > 100 µM (inactive); GI50 (IGROV-1): > 100 µM (inactive); GI50 (SW-620): > 100 µM (inactive); GI50 (SF-268): > 100 µM (inactive); GI50 (NCI/ADR-RES): > 100 µM (inactive); GI50 (SN12C): > 100 µM (inactive); GI50 (HCT-15): > 100 µM; GI50 (HT-29): > 100 µM (inactive); GI50 (SF-539): > 100 µM (inactive); GI50 (786-0): > 100 µM (inactive); GI50 (NCI-H460): > 100 µM (inactive); GI50 (SK-OV-3): > 100 µM (inactive); GI50 (U-251): > 100 µM (inactive)

Reference: ChEMBL document CHEMBL1201862, “PubChem BioAssay data set” (2004)
